Source: patent US20230151049A1, “Compounds Useful in HIV Therapy” (priority 2020, published 2023)
Like-named read-outs stand apart in the source and are kept apart here.

Assay: in vivo
Source text: General Protocol for Prodrugs Rat PK Studies Conducted at ChemPartner, China
A total of three naïve male Wistar Han rats, 200-250 g, were received from Beijing VR Laboratory Animal Co. LTD. Following an acclimation period, the animals were assigned to the study based on acceptable health as determined by a staff veterinarian and catheter patency. Fasting of the animals before or after dosing was not required.
On Day 1, each animal received a single intramuscular injection of prepared test article at a target dose level of 20 mg/kg equivalent of EFdA and at a dose volume of 2 mL/kg. The injection sites were at gastrocnemius and identified with an indelible marker for daily monitoring during the study. The animals were manually restrained for dosing and were not sedated. The dose suspension was mixed well by inversion before each dose to ensure homogeneity. […] In addition, all animals are monitored twice daily by the veterinary staff for clinical abnormalities.
Blood samples were collected from the study animals as detailed in the sample collection Table 6 below
Each blood sample for PK (200 μL) was collected from tail vein. The blood was transferred to a tube containing NaF/Na2EDTA anticoagulant and inverted several times to mix. Draw 150 μL whole blood from the tube, add 150 uL 100 mM ammonium acetate, pH 4 buffer and mix well. The resulting blood samples were transferred to individual polypropylene tubes and immediately placed on dry ice until storage at nominally −80° C. prior to LC-MS/MS analysis.

[1] = day 49, single IM Example 1A 20 mg/kg
[2] = day 56, single IM Example 1A 20 mg/kg
[3] = day 63, single IM Example 1A 20 mg/kg
[4] = day 70, single IM Example 1A 20 mg/kg
[5] = day 77, single IM Example 1A 20 mg/kg
[6] = day 84, single IM Example 1A 20 mg/kg
[7] = day 91, single IM Example 1A 20 mg/kg
[8] = day 77, single IM Example 2A 56 mg/kg
[9] = day 84, single IM Example 2A 56 mg/kg

C#C[C@]1(COP(=O)(N[C@@H](Cc2ccccc2)C(=O)OCCCCCCCCCCCCCCCCCCCCCC)Oc2ccccc2)O[C@@H](n2cnc3c(N)nc(F)nc32)C[C@@H]1O (single isomer, unassigned) [Example 1A]
Mean concentration of EFdA (day 21, single IM Example 1A 20 mg/kg): BQL
Mean concentration of EFdA (day 35, single IM Example 1A 20 mg/kg): BQL
Mean concentration of EFdA (day 42, single IM Example 1A 20 mg/kg): BQL
Mean concentration of EFdA [1]: BQL
Mean concentration of Example 1A [1]: BQL (BQL = below quantification limit, 0.3-0.5 ng/mL for Example 1A and 0.1-o.3 ng/mL for EFdA)
Mean concentration of EFdA [2]: BQL
Mean concentration of Example 1A [2]: BQL (BQL = below quantification limit, 0.3-0.5 ng/mL for Example 1A and 0.1-o.3 ng/mL for EFdA)
Mean concentration of EFdA [3]: BQL
Mean concentration of Example 1A [3]: BQL (BQL = below quantification limit, 0.3-0.5 ng/mL for Example 1A and 0.1-o.3 ng/mL for EFdA)
Mean concentration of EFdA [4]: BQL
Mean concentration of Example 1A [4]: BQL (BQL = below quantification limit, 0.3-0.5 ng/mL for Example 1A and 0.1-o.3 ng/mL for EFdA)
Mean concentration of EFdA [5]: BQL
Mean concentration of Example 1A [5]: BQL (BQL = below quantification limit, 0.3-0.5 ng/mL for Example 1A and 0.1-o.3 ng/mL for EFdA)
Mean concentration of EFdA [6]: BQL
Mean concentration of Example 1A [6]: BQL (BQL = below quantification limit, 0.3-0.5 ng/mL for Example 1A and 0.1-o.3 ng/mL for EFdA)
Mean concentration of EFdA [7]: BQL
Mean concentration of Example 1A [7]: BQL (BQL = below quantification limit, 0.3-0.5 ng/mL for Example 1A and 0.1-o.3 ng/mL for EFdA)
concentration at 7 day (male, Wistar Han, rat, in vivo, 20 mg/kg equivalent of EFdA, day 7, single IM Example 1A 20 mg/kg, read-out: Mean concentration of Example 1A): 6.38 ng/mL
concentration at 14 day (male, Wistar Han, rat, in vivo, 20 mg/kg equivalent of EFdA, day 14, single IM Example 1A 20 mg/kg, read-out: Mean concentration of Example 1A): 1.86 ng/mL
concentration at 21 day (male, Wistar Han, rat, in vivo, 20 mg/kg equivalent of EFdA, day 21, single IM Example 1A 20 mg/kg, read-out: Mean concentration of Example 1A): 3.42 ng/mL
concentration at 1 day (male, Wistar Han, rat, in vivo, day 1, single IM Example 1A 20 mg/kg, read-out: Mean concentration of Example 1A): 65.3 ng/mL
concentration at 28 day (male, Wistar Han, rat, in vivo, day 28, single IM Example 1A 20 mg/kg, read-out: Mean concentration of Example 1A): 2.72 ng/mL
concentration at 35 day (male, Wistar Han, rat, in vivo, day 35, single IM Example 1A 20 mg/kg, read-out: Mean concentration of Example 1A): 1.34 ng/mL
concentration at 42 day (male, Wistar Han, rat, in vivo, day 42, single IM Example 1A 20 mg/kg, read-out: Mean concentration of Example 1A): 0.633 ng/mL

C#C[C@]1(COP(=O)(N[C@@H](Cc2ccccc2)C(=O)OCCCCCCCCCCCCCCCCCCCCCC)Oc2ccccc2)O[C@@H](n2cnc3c(N)nc(F)nc32)C[C@@H]1O (single isomer, unassigned) [Example 1B]
Mean concentration of EFdA (day 1, single IM Example 1B 62 mg/kg): BQL (BQL = below quantification limit; 0.3 ng/mL for both)
Mean concentration of EFdA (day 7, single IM Example 1B 62 mg/kg): BQL (BQL = below quantification limit; 0.3 ng/mL for both)
Mean concentration of EFdA (day 14, single IM Example 1B 62 mg/kg): BQL (BQL = below quantification limit; 0.3 ng/mL for both)
Mean concentration of EFdA (day 21, single IM Example 1B 62 mg/kg): BQL (BQL = below quantification limit; 0.3 ng/mL for both)
Mean concentration of EFdA (day 28, single IM Example 1B 62 mg/kg): BQL (BQL = below quantification limit; 0.3 ng/mL for both)
Mean concentration of EFdA (day 35, single IM Example 1B 62 mg/kg): BQL (BQL = below quantification limit; 0.3 ng/mL for both)
Mean concentration of EFdA (day 42, single IM Example 1B 62 mg/kg): BQL (BQL = below quantification limit; 0.3 ng/mL for both)
Mean concentration of EFdA (day 49, single IM Example 1B 62 mg/kg): BQL (BQL = below quantification limit; 0.3 ng/mL for both)
Mean concentration of EFdA (day 56, single IM Example 1B 62 mg/kg): BQL (BQL = below quantification limit; 0.3 ng/mL for both)
Mean concentration of EFdA (day 63, single IM Example 1B 62 mg/kg): BQL (BQL = below quantification limit; 0.3 ng/mL for both)
Mean concentration of EFdA (day 70, single IM Example 1B 62 mg/kg): BQL (BQL = below quantification limit; 0.3 ng/mL for both)
Mean concentration of EFdA (day 77, single IM Example 1B 62 mg/kg): BQL (BQL = below quantification limit; 0.3 ng/mL for both)
Mean concentration of EFdA (day 84, single IM Example 1B 62 mg/kg): BQL (BQL = below quantification limit; 0.3 ng/mL for both)
concentration at 1 day (male, Wistar Han, rat, in vivo, day 1, single IM Example 1B 62 mg/kg, read-out: Mean concentration of Example 1B): 70.5 ng/mL
concentration at 7 day (male, Wistar Han, rat, in vivo, day 7, single IM Example 1B 62 mg/kg, read-out: Mean concentration of Example 1B): 8.75 ng/mL
concentration at 14 day (male, Wistar Han, rat, in vivo, day 14, single IM Example 1B 62 mg/kg, read-out: Mean concentration of Example 1B): 6.78 ng/mL
concentration at 21 day (male, Wistar Han, rat, in vivo, day 21, single IM Example 1B 62 mg/kg, read-out: Mean concentration of Example 1B): 3.53 ng/mL
concentration at 28 day (male, Wistar Han, rat, in vivo, day 28, single IM Example 1B 62 mg/kg, read-out: Mean concentration of Example 1B): 4.36 ng/mL
concentration at 35 day (male, Wistar Han, rat, in vivo, day 35, single IM Example 1B 62 mg/kg, read-out: Mean concentration of Example 1B): 1.72 ng/mL
concentration at 42 day (male, Wistar Han, rat, in vivo, day 42, single IM Example 1B 62 mg/kg, read-out: Mean concentration of Example 1B): 1.92 ng/mL
concentration at 49 day (male, Wistar Han, rat, in vivo, day 49, single IM Example 1B 62 mg/kg, read-out: Mean concentration of Example 1B): 0.912 ng/mL
concentration at 56 day (male, Wistar Han, rat, in vivo, day 56, single IM Example 1B 62 mg/kg, read-out: Mean concentration of Example 1B): 1.33 ng/mL
concentration at 63 day (male, Wistar Han, rat, in vivo, day 63, single IM Example 1B 62 mg/kg, read-out: Mean concentration of Example 1B): 0.748 ng/mL
concentration at 70 day (male, Wistar Han, rat, in vivo, day 70, single IM Example 1B 62 mg/kg, read-out: Mean concentration of Example 1B): 0.767 ng/mL
concentration at 77 day (male, Wistar Han, rat, in vivo, day 77, single IM Example 1B 62 mg/kg, read-out: Mean concentration of Example 1B): 1.55 ng/mL
concentration at 84 day (male, Wistar Han, rat, in vivo, day 84, single IM Example 1B 62 mg/kg, read-out: Mean concentration of Example 1B): 2.48 ng/mL

C#C[C@]1(COP(=O)(N[C@@H](Cc2ccccc2)C(=O)OCCCCCCCCCCCCCCCC)Oc2ccccc2)O[C@@H](n2cnc3c(N)nc(F)nc32)C[C@@H]1O (single isomer, unassigned) [Example 2A]
Mean concentration of Example 2A (day 42, single IM Example 2A 56 mg/kg): BQL
Mean concentration of Example 2A (day 49, single IM Example 2A 56 mg/kg): BQL
Mean concentration of Example 2A (day 70, single IM Example 2A 56 mg/kg): BQL
Mean concentration of EFdA [8]: BQL (BQL = below quantification limit, o.5 ng/mL for Example 2A and 0.1-0.3 ng/mL for EFdA)
Mean concentration of Example 2A [8]: BQL
Mean concentration of EFdA [9]: BQL (BQL = below quantification limit, o.5 ng/mL for Example 2A and 0.1-0.3 ng/mL for EFdA)
Mean concentration of Example 2A [9]: BQL
concentration at 1 day (male, Wistar Han, rat, in vivo, day 1, single IM Example 2A 56 mg/kg, read-out: Mean concentration of Example 2A): 3.54 ng/mL
concentration at 7 day (male, Wistar Han, rat, in vivo, day 7, single IM Example 2A 56 mg/kg, read-out: Mean concentration of Example 2A): 1.35 ng/mL
concentration at 14 day (male, Wistar Han, rat, in vivo, day 14, single IM Example 2A 56 mg/kg, read-out: Mean concentration of Example 2A): 3.35 ng/mL
concentration at 21 day (male, Wistar Han, rat, in vivo, day 21, single IM Example 2A 56 mg/kg, read-out: Mean concentration of Example 2A): 2.42 ng/mL
concentration at 28 day (male, Wistar Han, rat, in vivo, day 28, single IM Example 2A 56 mg/kg, read-out: Mean concentration of Example 2A): 4.08 ng/mL
concentration at 35 day (male, Wistar Han, rat, in vivo, day 35, single IM Example 2A 56 mg/kg, read-out: Mean concentration of Example 2A): 4.53 ng/mL
concentration at 56 day (male, Wistar Han, rat, in vivo, day 56, single IM Example 2A 56 mg/kg, read-out: Mean concentration of Example 2A): 1.14 ng/mL
concentration at 63 day (male, Wistar Han, rat, in vivo, day 63, single IM Example 2A 56 mg/kg, read-out: Mean concentration of Example 2A): 1.05 ng/mL
